Source: patent US11999806B2, “Broad-spectrum polypeptide against enterovirus and application thereof” (WUHAN INSTITUTE OF VIROLOGY, CHINESE ACADEMY OF SCIENCES, priority 2018, dated 2024)
Several values for one entry are separate records, joined by “and”; a condition that tells them apart may be missing. Equal values may be shown once. No end group written: not given here.

Legend:
[1] = tested on: Vero cells; experiment: Cytotoxicity by CCK-8 in Vero cells; type: cell-based; details: for Cell viability (%): 24 h; for cytotoxicity, result in words: CCK-8, 24 h
Protocol: (§1) The experiment was performed as follows. • (1) Vero cells were plated in a 96-well plate at 100 μl per well. • (2) After the cells reached 70%-80% confluence, the MEM medium containing 10% serum was replaced with a MEM medium containing 2% serum. Then, polypeptide BP8, BP10 or BP15 was added to generate gradient concentrations of […], […], 12.5 μM, 25 μM, 50 μM, 100 μM, and 200 μM (final concentrations), respectively. • (3) The samples were collected 24 hours after the addition of the polypeptide, and 10 μl of live cell detection reagent CCK-8 was added to each well and mixed well. • (4) The plate was placed at 37° C. for 4 h. • (5) The absorbance value at OD450 was measured with a microplate reader.

[2] = Cytotoxicity by CCK-8 in Vero cells; type: cell-based; details: 24 h, read-out: Cell viability (%)
Protocol: as §1

[3] = Cytotoxicity by CCK-8 in RD cells; type: cell-based; details: human; for CC50 at 24 h: Table 1 summary, cell line not given, read-out: CC50
Protocol: (§2) The experiment was performed as follows. • (1) RD cells were plated in a 96-well plate at 100 μl per well. • (2) After the cells reached 70%-80% confluence, the MEM medium containing 10% serum was replaced with a MEM medium containing 2% serum. Then, polypeptide P2 was added to generate gradient concentrations of 0.01 μM, 0.1 μM, 1 μM, 10 μM, and 100 μM (final concentration), respectively. • (3) The test was performed 24 hours after the addition of the polypeptide, and 10 μl of viable cell detection reagent CCK-8 was added to each well and mixed well. • (4) The plate was incubated at 37° C. for 2 h. • (5) The absorbance value at OD450 was measured with a microplate reader.
as §2, with “P1” for “P2”, “concentrations),” for “concentration),”
(§3) RD cells were used to test the antiviral effect of polypeptide P1. When RD cells reached 80% confluence, polypeptide P1 was added at concentrations of 0 μM (control group), 0.01 μM, 0.1 μM, 1 μM, 10 μM, and 100 μM, respectively. Three parallel wells were used for each concentration. The test was carried out 24 hours later, and the cell viability was detected using the CCK-8 kit.
as §2, with “3A-TAT-EP” for “P2”, “concentrations),” for “concentration),”
as §3, with “3A-TAT-EP.” for “P1.”, “3A-TAT-EP” for “P1”
as §2, with “Then, 3A-EP-DRI or 3A-EP-PEG4-PA” for “Then, polypeptide P2”, “and 50” for “and 100”, “(final concentrations),” for “(final concentration),”
as §3, with “polypeptides 3A-EP-DRI and 3A-EP-PEG4-PA.” for “polypeptide P1.”, “3A-EP-DRI or 3A-EP-PEG4-PA” for “P1”, “50” for “100”, “kit. […]” for “kit.”

[4] = tested on: RD cells; experiment: Cytotoxicity by CCK-8 in RD cells; type: cell-based; details: RD cells; for Cell viability (%): 24 h, CCK-8 4 h (Example 18); for cytotoxicity, result in words: CCK-8, 24 h
Protocol: as §2
as §2, with “P1” for “P2”, “concentrations),” for “concentration),”
as §3
as §2, with “3A-TAT-EP” for “P2”, “concentrations),” for “concentration),”
as §3, with “3A-TAT-EP.” for “P1.”, “3A-TAT-EP” for “P1”
as §2, with “Then, 3A-EP-DRI or 3A-EP-PEG4-PA” for “Then, polypeptide P2”, “and 50” for “and 100”, “(final concentrations),” for “(final concentration),”
as §3, with “polypeptides 3A-EP-DRI and 3A-EP-PEG4-PA.” for “polypeptide P1.”, “3A-EP-DRI or 3A-EP-PEG4-PA” for “P1”, “50” for “100”, “kit. […]” for “kit.”

[5] = tested on: CVB5; experiment: Anti-CVB5 effect in RD cells, qRT-PCR; type: cell-based, Coxsackievirus B5; details: Example 20, read-out: IC50 against CVB5
Protocol: • (1) […] were plated in a 24-well cell plate. • (2) After the cells reached 70%-80% confluence, the MEM medium containing 10% serum was replaced with a MEM medium containing 2% serum (0.5 ml/well).

[6] = RD cells, 24 h, CCK-8 4 h (Example 18), read-out: Cell viability (%)

Compound	Cell viability (%) ([1]; 3.0625 μM)	Cell viability (%) ([1]; 6.125 μM)	Cell viability (%) ([1]; 12.5 μM)	Cell viability (%) ([1]; 25 μM)	Cell viability (%) ([1]; 50 μM)	Cell viability (%) ([1]; 100 μM)	Cell viability (%) ([1]; 200 μM)	cytotoxicity, result in words [1]	viability at 24 h, 3.0625 µM [2] [%]	viability at 24 h, 6.125 µM [2] [%]	viability at 24 h, 12.5 µM [2] [%]	viability at 24 h, 25 µM [2] [%]	viability at 24 h, 50 µM [2] [%]	viability at 24 h, 100 µM [2] [%]	viability at 24 h, 200 µM [2] [%]	viability at 24 h, 3.0625 µM [3, 6] [%]	viability at 24 h, 6.125 µM [3, 6] [%]	viability at 24 h, 12.5 µM [3, 6] [%]	viability at 24 h, 25 µM [3, 6] [%]	viability at 24 h, 50 µM [3, 6] [%]	other results
YGRKKRRQRRRGSGEAVREYCKEK [BP10]	106.2952% and 107.1965%	119.236% and 118.9785%	120.8456% and 123.9359%	117.3689% and 116.0169%	118.399% and 120.0086%	92.32% and 94.06%	86.72% and 82.22%	not toxic to cells within 200 μM	107	119	122	117	109	92.8	83.1	97.7	98.5	94.8	109	109	viability at 24 h, 100 µM [3, 6]: 107%; viability at 24 h, 200 µM ([3]; RD cells, 200 μM, 24 h, CCK-8 4 h (Example 18), read-out: Cell viability (%)): 79.7%; CC50 at 24 h [3]: > 200 µM; Cell viability (%) ([4]; 3.0625 μM): 98.99% and 103.5309%; Cell viability (%) ([4]; 6.125 μM): 93.25% and 92.62%; Cell viability (%) ([4]; 12.5 μM): 97.35% and 100.8827%; Cell viability (%) ([4]; 25 μM): 99.56% and 96.2169%; Cell viability (%) ([4]; 50 μM): 115.4477% and 116.3934%; Cell viability (%) ([4]; 100 μM): 112.232% and 114.3758%; Cell viability (%) ([4]; 200 μM): 85.18% and 97.54%; cytotoxicity, result in words [4]: not toxic to cells within 200 μM; IC50 [5]: 1.33 µM
CC(C)C[C@H](NC(=O)[C@H](Cc1c[nH]c2ccccc12)NC(=O)CNC(=O)[C@H](CCCCN)NC(=O)[C@H](CCC(=O)O)NC(=O)[C@H](CCCCN)NC(=O)[C@H](CS)NC(=O)[C@H](Cc1ccc(O)cc1)NC(=O)[C@H](CCC(=O)O)NC(=O)[C@H](CCCNC(=N)N)NC(=O)[C@@H](NC(=O)[C@H](C)NC(=O)[C@H](CCC(=O)O)NC(=O)CNC(=O)[C@H](CO)NC(=O)CNC(=O)[C@H](CCCNC(=N)N)NC(=O)[C@H](CCCNC(=N)N)NC(=O)[C@H](CCCNC(=N)N)NC(=O)[C@H](CCC(N)=O)NC(=O)[C@H](CCCNC(=N)N)NC(=O)[C@H](CCCNC(=N)N)NC(=O)[C@H](CCCCN)NC(=O)[C@H](CCCCN)NC(=O)[C@H](CCCNC(=N)N)NC(=O)CNC(=O)[C@@H](N)Cc1ccc(O)cc1)C(C)C)C(=O)N[C@H](C(=O)N1CCC[C@H]1C(=O)O)C(C)C [BP15]	105.9733% and 109.128%	127.0907% and 124.0647%	120.3949% and 122.777%	111.0595% and 118.2059%	109.4499% and 102.9473%	87.11% and 76.81%	13.65% and 13.13% and 13.4559%	not toxic to cells within 100 μM	108	125	122	116	112	75.8	20	91	104	96.7	96.7	107	viability at 24 h, 100 µM [3, 6]: 96.3%; CC50 at 24 h [3]: > 100 µM; Cell viability (%) ([4]; 3.0625 μM): 85.77% and 91.09%; Cell viability (%) ([4]; 6.125 μM): 105.7678% and 97.72%; Cell viability (%) ([4]; 12.5 μM): 98.76% and 95.25%; Cell viability (%) ([4]; 25 μM): 92.912% and 95.05%; Cell viability (%) ([4]; 50 μM): 103.6251% and 100.2489%; Cell viability (%) ([4]; 100 μM): 99.4048% and 104.9237%; cytotoxicity, result in words [4]: not toxic to cells within 100 μM; IC50 [5]: 6.76 µM
